According to ChEMBL document CHEMBL1201862, “PubChem BioAssay data set” (2004):
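96-well plates; 48 h exposure; 5 concentrations. Endpoints by linear interpolation between flanking doses. Not reached: highest tested concentration assigned. GI50 marks 50% less growth.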 Active and inactive are the calls of the source. Cut-off read from the data, not from the text of the source: active = GI50 up to about 1.1 µM and inactive = higher.

Legend:
Test in all cases: NCI anticancer screen, dose series, 48 h
[1] = tested on: HCC 2998
[2] = tested on: HOP-62
[3] = tested on: HCT-116
[4] = tested on: MDA-N
[5] = tested on: RPMI-8226
[6] = tested on: PC-3
[7] = tested on: SNB-75
[8] = tested on: SK-MEL-5
[9] = tested on: U-251
[10] = tested on: SNB-19
[11] = tested on: DU-145
[12] = tested on: OVCAR-4
[13] = tested on: HL-60
[14] = tested on: UACC-62
[15] = tested on: IGROV-1
[16] = tested on: SK-OV-3
[17] = tested on: SK-MEL-28
[18] = tested on: XF498
[19] = tested on: EKVX
[20] = tested on: NCI-H460
[21] = tested on: NCI/ADR-RES
[22] = tested on: DMS-114
[23] = tested on: SF-539
[24] = tested on: SNB-78
[25] = tested on: K562
[26] = tested on: T47D
[27] = tested on: HOP-18
[28] = tested on: NCI-H522
[29] = tested on: MOLT-4
[30] = tested on: LOX IMVI
[31] = tested on: MDA-MB-231
[32] = tested on: 786-0
[33] = tested on: SN12C
[34] = tested on: CCRF-CEM
[35] = tested on: SK-MEL-2
[36] = tested on: COLO 205
[37] = tested on: ACHN
[38] = tested on: A498
[39] = tested on: SW-620
[40] = tested on: OVCAR-3
[41] = tested on: KM12
[42] = tested on: KM-20L2
[43] = tested on: MCF7
[44] = tested on: CAKI-1
[45] = tested on: M19-MEL
[46] = tested on: DMS-273
[47] = tested on: UACC-257
[48] = tested on: RXF 393
[49] = tested on: UO-31
[50] = tested on: MDA-MB-435
[51] = tested on: HOP-92
[52] = tested on: HCT-15
[53] = tested on: TK-10
[54] = tested on: M14
[55] = tested on: SF-268
[56] = tested on: Hs-578T
[57] = tested on: SR
[58] = tested on: NCI-H226
[59] = tested on: OVCAR-5
[60] = tested on: OVCAR-8
[61] = tested on: NCI-H23
[62] = tested on: DLD-1
[63] = tested on: A549
[64] = tested on: LXFL 529
[65] = tested on: BT-549
[66] = tested on: SF-295
[67] = tested on: Malme-3M
[68] = tested on: HT-29
[69] = tested on: RXF 631

## CC1(C)CC(Nc2ccc(Nc3ccccc3)cc2)CC(C)(C)N1
[1]
  GI50: 15.7 µM (inactive)
[2]
  GI50: 50.2 µM (inactive)
[3]
  GI50: 35.6 µM (inactive)
[4]
  GI50: 17 µM (inactive)
[5]
  GI50: 12.7 µM (inactive)
[6]
  GI50: 11.5 µM (inactive)
[7]
  GI50: 37.6 µM (inactive)
[8]
  GI50: 15.2 µM (inactive)
[9]
  GI50: 26.1 µM (inactive)
[10]
  GI50: 50.2 µM (inactive)
[11]
  GI50: 23 µM (inactive)
[12]
  GI50: 34.2 µM (inactive)
[13]
  GI50: 6.97 µM (inactive)
[14]
  GI50: 16.1 µM (inactive)
[15]
  GI50: 44.1 µM (inactive)
[16]
  GI50: > 100 µM (inactive)
[17]
  GI50: 18.2 µM (inactive)
[18]
  GI50: 22.5 µM (inactive)
[19]
  GI50: 34.2 µM (inactive)
[20]
  GI50: 27.9 µM (inactive)
[21]
  GI50: 21.9 µM (inactive)
[22]
  GI50: 21.2 µM (inactive)
[23]
  GI50: 15.8 µM (inactive)
[24]
  GI50: 66.2 µM (inactive)
[25]
  GI50: 13.2 µM (inactive)
[26]
  GI50: 16 µM (inactive)
[27]
  GI50: > 100 µM (inactive)
[28]
  GI50: 10.1 µM (inactive)
[29]
  GI50: 18.1 µM (inactive)
[30]
  GI50: 24.6 µM (inactive)
[31]
  GI50: 14.9 µM (inactive)
[32]
  GI50: 21.1 µM (inactive)
[33]
  GI50: 48.6 µM (inactive)
[34]
  GI50: 6.41 µM (inactive)
[35]
  GI50: 23.8 µM (inactive)
[36]
  GI50: 16.8 µM (inactive)
[37]
  GI50: 13.5 µM (inactive)
[38]
  GI50: 28.2 µM (inactive)
[39]
  GI50: 21.8 µM (inactive)
[40]
  GI50: 18.4 µM (inactive)
[41]
  GI50: 44.1 µM (inactive)
[42]
  GI50: 26.1 µM (inactive)
[43]
  GI50: 16.7 µM (inactive)
[44]
  GI50: 22.9 µM (inactive)
[45]
  GI50: 35.2 µM (inactive)
[46]
  GI50: 41.7 µM (inactive)
[47]
  GI50: 14.7 µM (inactive)
[48]
  GI50: 18 µM (inactive)
[49]
  GI50: 9.48 µM (inactive)
[50]
  GI50: 16.8 µM (inactive)
[51]
  GI50: 12 µM (inactive)
[52]
  GI50: 33.8 µM
[53]
  GI50: 32.8 µM (inactive)
[54]
  GI50: 17.7 µM (inactive)
[55]
  GI50: 43.3 µM (inactive)
[56]
  GI50: 25.4 µM (inactive)
[57]
  GI50: 14.6 µM (inactive)
[58]
  GI50: 17.1 µM (inactive)
[59]
  GI50: 36.2 µM (inactive)
[60]
  GI50: 30.1 µM (inactive)
[61]
  GI50: 42.4 µM (inactive)
[62]
  GI50: 70.5 µM (inactive)
[63]
  GI50: 45.9 µM (inactive)
[64]
  GI50: 25.1 µM (inactive)
[65]
  GI50: 12.7 µM (inactive)
[66]
  GI50: 68.2 µM (inactive)
[67]
  GI50: 17.9 µM (inactive)
[68]
  GI50: 21.3 µM (inactive)
[69]
  GI50: 18.6 µM (inactive)
